# Patent US4600537A, “Preparation of (±) 4-demethoxy-6 (and-11-)-deoxydaunomycinone” (Farmitalia Carlo Erba S.p.A., priority 1981, dated 1986)
# “And” between values parts separate entries of the source, which are not always exact repeats. Equal values may be shown once.
# Assays:
# [1] = system: Hela cells; assay: Effect on Hela cells cloning activity (cytotoxic activity in vitro); assay type: cell-based; details: treatment for 24 hours; for IC50: read-out: Effect on Hela cells cloning activity, ID50; for activity at 0.1 µg/mL: dose 100 ng/ml; for Effect on Hela cells cloning activity, %: 1440 min
# Method: The biological activity of the following compound was tested against Hela cells in vitro: […]
# [2] = system: P388 ascitic leukemia; assay: Effect against P388 leukemia in mice; set-up: LTS (long term survivors) / Toxic deaths (evaluated on the basis of zooptic findings): dose or concentration left out as unconfirmed; details: for antitumor activity (in words): P388 ascitic leukemia in mice
# Method: The activity of the compounds 4-demethoxy-4'-epi-11-deoxydaunorubicin and 4-demethoxy-deoxy-daunorubicin was also tested against P388 ascitic leukemia in mice.
# [3] = Homo sapiens, HeLa, 24 h, dose 6.2 ng/ml
# [4] = Homo sapiens, HeLa, 24 h, dose 25 ng/ml
compound,measurement,setting,value
CC(=O)[C@]1(O)Cc2c(cc3c(c2O)C(=O)c2ccccc2C3=O)[C@@H](O[C@H]2C[C@H](N)[C@H](O)[C@H](C)O2)C1 [4-demethoxy-6-deoxydaunorubicin],activity at 0.005 µg/mL,"[1]; Homo sapiens, HeLa, 24 h, dose 5 ng/ml",119%
same,activity at 0.01 µg/mL,"[1]; Homo sapiens, HeLa, 24 h, dose 10 ng/ml",73%
same,activity at 0.05 µg/mL,"[1]; Homo sapiens, HeLa, 24 h, dose 50 ng/ml",4%
same,activity at 0.25 µg/mL,"[1]; Homo sapiens, HeLa, 24 h, dose 250 ng/ml",0%
same,IC50,"[1]; Homo sapiens, HeLa",0.017 µg/mL
C[C@@H]1O[C@@H](O[C@H]2C[C@](O)(C(=O)CO)Cc3cc4c(c(O)c32)C(=O)c2ccccc2C4=O)C[C@H](N)[C@H]1O [4-demethoxy-11-deoxy-4'-epidoxorubicin],activity at 0.0062 µg/mL,[1]; [3],100%
same,activity at 0.025 µg/mL,[1]; [4],33%
same,activity at 0.1 µg/mL,"[1]; Homo sapiens, HeLa, 24 h",1%
same,activity at 0.4 µg/mL,"[1]; Homo sapiens, HeLa, 24 h, dose 400 ng/ml",0%
same,IC50,"[1]; Homo sapiens, HeLa",0.02 µg/mL
CC(=O)[C@]1(O)Cc2cc3c(c(O)c2[C@@H](O[C@H]2C[C@H](N)[C@@H](O)[C@H](C)O2)C1)C(=O)c1ccccc1C3=O [4-demethoxy-4'-epi-11-deoxydaunorubicin],antitumor activity (in words),[2],exert antitumor activity
same,LTS (long term survivors),"[2]; dose 6.6, ip on day 1",0/10
same,Toxic deaths (evaluated on the basis of zooptic findings),"[2]; dose 6.6, ip on day 1",0/10
same,LTS (long term survivors),"[2]; dose 10, ip on day 1",0/10
same,Toxic deaths (evaluated on the basis of zooptic findings),"[2]; dose 10, ip on day 1",0/10
same,LTS (long term survivors),"[2]; dose 15, ip on day 1",0/10
same,Toxic deaths (evaluated on the basis of zooptic findings),"[2]; dose 15, ip on day 1",0/10
same,IC50,"[1]; Homo sapiens, HeLa",0.04 µg/mL
same,"Effect on Hela cells cloning activity, %",[1]; dose 1.5 ng/ml,78% and 109%
same,"Effect on Hela cells cloning activity, %",[1]; dose 6.2 ng/ml,60% and 105%
same,"Effect on Hela cells cloning activity, %",[1]; dose 25 ng/ml,56% and 82%
CC(=O)[C@]1(O)Cc2cc3c(c(O)c2[C@@H](O[C@H]2C[C@H](N)[C@H](O)[C@H](C)O2)C1)C(=O)c1ccccc1C3=O [4-demethoxy-11-deoxydaunorubicin],activity at 0.0062 µg/mL,[1]; [3],112%
same,activity at 0.025 µg/mL,[1]; [4],50%
same,activity at 0.1 µg/mL,"[1]; Homo sapiens, HeLa, 24 h",0%
same,IC50,"[1]; Homo sapiens, HeLa",0.025 µg/mL
4-demethoxy-deoxy-daunorubicin,antitumor activity (in words),[2],exert antitumor activity
same,LTS (long term survivors),"[2]; dose 4.4, ip on day 1",0/10
same,Toxic deaths (evaluated on the basis of zooptic findings),"[2]; dose 4.4, ip on day 1",0/10
same,LTS (long term survivors),"[2]; dose 6.6, ip on day 1",0/10
same,Toxic deaths (evaluated on the basis of zooptic findings),"[2]; dose 6.6, ip on day 1",7/10
same,LTS (long term survivors),"[2]; dose 10, ip on day 1",0/10
same,Toxic deaths (evaluated on the basis of zooptic findings),"[2]; dose 10, ip on day 1",8/10
"COc1cccc2c1C(=O)c1c(O)c3c(c(O)c1C2=O)C[C@@](O)(C(C)=O)C[C@@H]3O[C@H]1C[C@H](N)[C@H](O)[C@H](C)O1 [Daunorubicin, reference compound]",LTS (long term survivors),"[2]; dose 2.9, ip on day 1",0/10
same,Toxic deaths (evaluated on the basis of zooptic findings),"[2]; dose 2.9, ip on day 1",0/10
same,LTS (long term survivors),"[2]; dose 4.4, ip on day 1",0/10
same,Toxic deaths (evaluated on the basis of zooptic findings),"[2]; dose 4.4, ip on day 1",0/10
same,LTS (long term survivors),"[2]; dose 6.6, ip on day 1",0/10
same,Toxic deaths (evaluated on the basis of zooptic findings),"[2]; dose 6.6, ip on day 1",3/10
same,activity at 0.0031 µg/mL,"[1]; Homo sapiens, HeLa, 24 h, dose 3.1 ng/ml",104%
same,activity at 0.0125 µg/mL,"[1]; Homo sapiens, HeLa, 24 h, dose 12.5 ng/ml",65%
same,IC50,"[1]; Homo sapiens, HeLa",0.015 µg/mL
same,"Effect on Hela cells cloning activity, %",[1]; dose 3.1 ng/ml,115%
same,"Effect on Hela cells cloning activity, %",[1]; dose 6.2 ng/ml,86% and 150% and 93% and 101%
same,"Effect on Hela cells cloning activity, %",[1]; dose 12.5 ng/ml,83% and 80% and 77% and 79%
